Measurements from patent US20070160574A1, “Design of CXC chemokine analogs for the treatment of human diseases” (priority 2000, published 2007).
Non-standard residues stand in square brackets, D forms with d. No end group written: not given here. Aun = NCCCCCCCCCCC(=O)O

T1: CXCR3 receptor (CXCR-3/300-19 cells) (Homo sapiens, UniProt P49682)
T1 construct: expressed in transfected cells; host or cells: 300-19 mouse pre-B lymphocytes (CXCR-3/300-19)
T1 sequence (P49682 1-368): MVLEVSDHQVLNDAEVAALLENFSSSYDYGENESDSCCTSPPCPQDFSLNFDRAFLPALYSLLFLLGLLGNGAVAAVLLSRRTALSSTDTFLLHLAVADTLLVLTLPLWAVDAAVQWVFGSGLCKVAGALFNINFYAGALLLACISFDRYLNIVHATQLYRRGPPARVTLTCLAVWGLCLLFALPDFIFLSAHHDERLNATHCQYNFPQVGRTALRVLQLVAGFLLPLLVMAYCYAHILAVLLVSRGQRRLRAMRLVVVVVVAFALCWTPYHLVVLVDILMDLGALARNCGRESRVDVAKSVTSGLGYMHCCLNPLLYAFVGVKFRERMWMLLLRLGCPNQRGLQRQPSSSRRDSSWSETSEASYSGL


Target: T1, CXCR3 receptor (CXCR-3/300-19 cells)
Test: [Ca2+]i mobilization by IP-10 analogs, FLIPR Calcium 3 kit, CXCR-3/300-19 cells
Format: cell-based
Conditions: 100 μM (FIG. 1); three independent experiments
Protocol: Binding and Calcium Mobilization: Suspensions of CXCR-3/300-19 cells were used to assess binding and intracellular calcium mobilization induced by IP-10 analogs. These are mouse pre-B lymphocytes transfected with the CXCR3 receptor, (Moser, et al). The cells were washed in RPMI media and resuspended in RPMI media supplemented with 10% FCS, then plated at 1.2×10^5 cells per well of 96-well black wall/clear bottom plates coated with poly-D-lysine (Becton Dickinson) and loaded with 100 uL fluorescent calcium indicator FLIPR Calcium 3 assay kit component A (Molecular Probes) for 1 hr at 37° C. The cells on the plates were then spun at 1000 rpm for 15 minutes at room temperature.
Each of the sequences successfully bound to the cellular receptors. The intracellular calcium mobilization in response to 25 uL (0-100000 nM final concentrations) of the appropriate and various concentrations of analogue was measured at 37° C. by monitoring fluorescence as a function of time in all the wells using the Flexstation Fluorometric Imaging Plate Reader (Molecular Devices). All analogues were run simultaneously with rhIP-10 (R&D Systems) as the standard. Table 7 provides the dosage effect of the binding of each of the IP-10 analogs on the calcium mobilization activity of the cells.

Row | Molecule | increase in intracellular calcium mobilization [%]
1 | acetylated-IP-10-(1-16)-[linker]-IP-10-(66-78) (Ac-VPLSRTVRCTCISISN[Aun]LKAVSKEMSKRSP; cysteine pairing not given here) [SEQ ID NO:1641, IP-10 analog, numbering of U.S. App; 11/590,210] | ~500

Same assay, conditions: dosage 1.2 μM; CXCR-3/300-19 cells

Row | Molecule | calcium mobilization activity of the cells [%]
2 | acetylated-IP-10-(1-16)-[linker]-IP-10-(66-78) (Ac-VPLSRTVRCTCISISN[Aun]LKAVSKEMSKRSP; cysteine pairing not given here) [SEQ ID NO:1641, IP-10 analog, numbering of U.S. App; 11/590,210] | 12.6

Same assay, conditions: dosage 3.7 μM; CXCR-3/300-19 cells

Row | Molecule | calcium mobilization activity of the cells [%]
3 | acetylated-IP-10-(1-16)-[linker]-IP-10-(66-78) (Ac-VPLSRTVRCTCISISN[Aun]LKAVSKEMSKRSP; cysteine pairing not given here) [SEQ ID NO:1641, IP-10 analog, numbering of U.S. App; 11/590,210] | 12.7

Same assay, conditions: dosage 11.1 μM; CXCR-3/300-19 cells

Row | Molecule | calcium mobilization activity of the cells [%]
4 | acetylated-IP-10-(1-16)-[linker]-IP-10-(66-78) (Ac-VPLSRTVRCTCISISN[Aun]LKAVSKEMSKRSP; cysteine pairing not given here) [SEQ ID NO:1641, IP-10 analog, numbering of U.S. App; 11/590,210] | 14.1

Same assay, conditions: dosage 33.3 μM; CXCR-3/300-19 cells

Row | Molecule | calcium mobilization activity of the cells [%]
5 | acetylated-IP-10-(1-16)-[linker]-IP-10-(66-78) (Ac-VPLSRTVRCTCISISN[Aun]LKAVSKEMSKRSP; cysteine pairing not given here) [SEQ ID NO:1641, IP-10 analog, numbering of U.S. App; 11/590,210] | 20

Same assay, conditions: dosage 100 μM; CXCR-3/300-19 cells

Row | Molecule | calcium mobilization activity of the cells [%]
6 | acetylated-IP-10-(1-16)-[linker]-IP-10-(66-78) (Ac-VPLSRTVRCTCISISN[Aun]LKAVSKEMSKRSP; cysteine pairing not given here) [SEQ ID NO:1641, IP-10 analog, numbering of U.S. App; 11/590,210] | 52.9

Test system: SUP-T1 cells
Test: not given
Format: cell-based, human
Conditions: not given
Protocol: The experiments include contacting an SDF-1 mimetic with a cell. For the experiments, SUP-T1 cells (ATCC) were plated on the day of the experiment using 1.2×10^5 cells per well in 96-well black-wall/clear-bottom plates coated with poly-D-lysine (BD Biosciences) and loaded using a fluorescent calcium indicator. The indicator used was from a FLIPR Calcium 3 assay kit, component A, (Molecular Probes) and was loaded in the cell for 1 hr at 37° C. The intracellular calcium mobilization in response to the appropriate analogue was measured at 37° C. by monitoring the fluorescence as a function of time simultaneously in all the wells using a Flexstation Fluorometric Imaging Plate Reader (Molecular Devices).

Row | Molecule | EC50 [nM]
7 | KPVSLSYRAPFRFFGGGKLKWIQEYLEKALN-NH2 (C-terminus assumed) [SEQ ID NO: 6] | 283
8 | KPVSLSYRAPFRFFGGGRLKWIQEYLEKALN-NH2 (C-terminus assumed) [SEQ ID NO: 21] | 361
9 | KPVSLSYRAPFRFFGGKGLKWIQEYLEKALN-NH2 [SEQ ID NO: 5] | 211
10 | KPVSLSYRAPFRFFGGKKLKWIQEYLEKALN-NH2 (C-terminus assumed) [SEQ ID NO: 9] | 225
11 | KPVSLSYRAPFRFFGGRGLKWIQEYLEKALN-NH2 (C-terminus assumed) [SEQ ID NO: 20] | 307
12 | KPVSLSYRAPFRFFGGRRLKWIQEYLEKALN-NH2 [SEQ ID NO: 24] | 173
13 | KPVSLSYRAPFRFFGKGGLKWIQEYLEKALN-NH2 (C-terminus assumed) [SEQ ID NO: 4] | 312
14 | KPVSLSYRAPFRFFGKGKLKWIQEYLEKALN-NH2 (C-terminus assumed) [SEQ ID NO: 12] | 307
15 | KPVSLSYRAPFRFFGKKGLKWIQEYLEKALN-NH2 (C-terminus assumed) [SEQ ID NO: 8] | 304
16 | KPVSLSYRAPFRFFGKKKLKWIQEYLEKALN-NH2 (C-terminus assumed) [SEQ ID NO: 14] | 92
17 | KPVSLSYRAPFRFFGRGGLKWIQEYLEKALN-NH2 (C-terminus assumed) [SEQ ID NO: 19] | 253
18 | KPVSLSYRAPFRFFGRGRLKWIQEYLEKALN-NH2 [SEQ ID NO: 27] | 4320
19 | KPVSLSYRAPFRFFGRRGLKWIQEYLEKALN-NH2 [SEQ ID NO: 23] | 202
20 | KPVSLSYRAPFRFFGRRRLKWIQEYLEKALN-NH2 [SEQ ID NO: 29] | 1870
21 | KPVSLSYRAPFRFFKGGKLKWIQEYLEKALN-NH2 (C-terminus assumed) [SEQ ID NO: 10] | 233
22 | KPVSLSYRAPFRFFKGKGLKWIQEYLEKALN-NH2 [SEQ ID NO: 11] | 228
23 | KPVSLSYRAPFRFFKGKKLKWIQEYLEKALN-NH2 (C-terminus assumed) [SEQ ID NO: 15] | 157
24 | KPVSLSYRAPFRFFKKGGLKWIQEYLEKALN-NH2 (C-terminus assumed) [SEQ ID NO: 7] | 281
25 | KPVSLSYRAPFRFFKKGKLKWIQEYLEKALN-NH2 (C-terminus assumed) [SEQ ID NO: 16] | 140
26 | KPVSLSYRAPFRFFKKKGLKWIQEYLEKALN-NH2 (C-terminus assumed) [SEQ ID NO: 13] | 137
27 | KPVSLSYRAPFRFFKKKKLKWIQEYLEKALN-NH2 (C-terminus assumed) [SEQ ID NO: 17] | 316
28 | KPVSLSYRAPFRFFRGGGLKWIQEYLEKALN-NH2 (C-terminus assumed) [SEQ ID NO: 18] | 219
29 | KPVSLSYRAPFRFFRGGRLKWIQEYLEKALN-NH2 [SEQ ID NO: 25] | 132
30 | KPVSLSYRAPFRFFRGRGLKWIQEYLEKALN-NH2 [SEQ ID NO: 26] | 248
31 | KPVSLSYRAPFRFFRGRRLKWIQEYLEKALN-NH2 [SEQ ID NO: 30] | 178
32 | KPVSLSYRAPFRFFRRGGLKWIQEYLEKALN-NH2 (C-terminus assumed) [SEQ ID NO: 22] | 171
33 | KPVSLSYRAPFRFFRRGRLKWIQEYLEKALN-NH2 [SEQ ID NO: 31] | 709
34 | KPVSLSYRAPFRFFRRRGLKWIQEYLEKALN-NH2 [SEQ ID NO: 28] | 597
35 | KPVSLSYRAPFRFFRRRRLKWIQEYLEKALN-NH2 [SEQ ID NO: 32] | 1120

Test system: high affinity receptors on human immature monocyte-derived dendritic cells (iDCs)
Test: not given
Conditions: cited from earlier work

Row | Molecule | Kd [nM]
36 | rBRAK: recombinant BRAK (CXCL14 chemokine) (protein, UniProt O95715 35-111, looked up) C-X-C motif chemokine 14: SKCKCSRKGPKIRYSDVKKLEMKPKYPHCEEKMVIITTKSVSRYRGQEHCLHPKLQSTKRFIKWYNAWNEKRRVYEE | 2

Test system: endothelial cell chemotaxis
Test: not given
Conditions: in vitro; cited from earlier work

Row | Molecule | concentration blocking endothelial cell chemotaxis (as low as) [nmol/L]
37 | rBRAK: recombinant BRAK (CXCL14 chemokine) (protein, UniProt O95715 35-111, looked up) C-X-C motif chemokine 14: SKCKCSRKGPKIRYSDVKKLEMKPKYPHCEEKMVIITTKSVSRYRGQEHCLHPKLQSTKRFIKWYNAWNEKRRVYEE | 1
